Experiments:
Format in all cases: physicochemical
[1] = thermodynamic based polymorph screen; conditions: for new crystal forms / polymorphs detected: besylate suspended in different solvents, three months
Description: A thermodynamic based polymorph screen was conducted with crystalline (1S,5S)-3-(5,6-dichloropyridin-3-yl)-3,6-diazabicyclo[3.2.0]heptane benzenesulfonate. The benzenesulfonate salt was suspended in different solvents including water, ethanol, acetonitrile, methanol, N,N-dimethylformamide, ethyl acetate, 1,4-dioxane, chloroform, pyridine, nitromethane, PEG 400 and […] water/methanol. […] This difference between the benzenesulfonate and 4-methylbenzenesulfonate salts is unexpected considering the structural similarities of the two acids. The lack of different physical forms is an advantage to chemical and physical processing operations.

[2] = intrinsic dissolution rate at 37° C.
[3] = hygroscopicity (relative humidity adsorption/desorption isotherms); conditions: relative to acetate, citrate, maleate, methanesulfonate, 4-methylbenzenesulfonate and sulfate salts, FIGS. 1-7
Description: Relative humidity isotherms were collected using a VTI SGA-100 Symmetric Vapor Sorption Analyzer. About 2 to 30 mg of sample is added to the system. The relative humidity is held constant at each step until a constant weight equilibrium is achieved or a maximum of six hours per step.

[4] = solid state stability at 40° C. in the dark at 75% relative humidity; conditions: 75% RH
Description: Crystalline (1S,5S)-3-(5,6-dichloropyridin-3-yl)-3,6-diazabicyclo[3.2.0]heptane benzenesulfonate was tested for solid state stability at 40° C. in the dark at 75% relative humidity.

O=C(O)[C@H](O)[C@@H](O)C(=O)O [(L)-tartrate]
new crystal forms / polymorphs detected [1]: multiple polymorphs were discovered

Clc1cc(N2C[C@@H]3CN[C@@H]3C2)cnc1Cl.O=S(=O)(O)c1ccccc1 [(1S,5S)-3-(5,6-dichloropyridin-3-yl)-3,6-diazabicyclo[3.2.0]heptane Benzenesulfonate]
intrinsic dissolution rate ([2]; pH 1.0): 8.5 mg/min·cm^2
intrinsic dissolution rate ([2]; pH 6.8): 10.1 mg/min·cm^2
unique crystal forms isolated/characterized [1]: only one
new crystal forms / polymorphs detected [1]: No new crystal forms were detected
hygroscopicity [3]: lower hygroscopicity relative to other salts
% remaining ([4]; 0 week): 99.72 ± 0.56%
% remaining ([4]; 1 week): 100.66 ± 0.51%
% remaining ([4]; 2 week): 99.47 ± 1.72%
% remaining ([4]; 4 week): 100.22 ± 0.59%
% remaining ([4]; 6 week): 100.53 ± 0.20%
% remaining ([4]; 8 week): 100.93 ± 0.37%
% remaining ([4]; 12 week): 100.84 ± 0.47%

Cc1ccc(S(=O)(=O)O)cc1.Clc1cc(N2C[C@@H]3CN[C@@H]3C2)cnc1Cl [4-methylbenzenesulfonate salt, (1S,5S)-3-(5,6-dichloropyridin-3-yl)-3,6-diazabicyclo[3.2.0]heptane 4-methylbenzenesulfonate]
unique crystal forms isolated/characterized [1]: three unique crystal forms
new crystal forms / polymorphs detected [1]: multiple polymorphs were discovered

Clc1cc(N2C[C@@H]3CN[C@@H]3C2)cnc1Cl.O=S(=O)(O)O [sulfate, (1S,5S)-3-(5,6-dichloropyridin-3-yl)-3,6-diazabicyclo[3.2.0]heptane sulfate]
new crystal forms / polymorphs detected [1]: multiple polymorphs were discovered

From patent US7902371B2, “(1S,5S)-3-(5,6-dichloropyridin-3-yl)-3,6-diazabicyclo[3.2.0]heptane benzenesulfonate” (Abbott Laboratories, priority 2004, dated 2011)
